Reference: patent US20100298141A1, “SUBSTITUTED PYRIDINE N-OXIDE HERBICIDES” (E. I. DU PONT DE NEMOURS AND COMPANY, priority 2007, published 2010)

Experiments:
Assay in all cases: Test F preemergence test
Surinam grass = format: in vivo, Brachiaria decumbens; conditions: scale 0 to 100
Outline: (§1)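 Greenhouse screen: test chemical in surfactant-containing non-phytotoxic solvent applied preemergence to sown seeds or postemergence to sugarcane plants; after 14 to 21 days each species scored visually versus controls.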

green foxtail = format: in vivo, Setaria viridis; conditions: scale 0 to 100
Outline: as §1

common purslane = format: in vivo, Portulaca oleracea; conditions: scale 0 to 100
Outline: as §1

large crabgrass = format: in vivo, Digitaria sanguinalis; conditions: scale 0 to 100
Outline: as §1

field bindweed = format: in vivo, Convolvulus arvensis; conditions: scale 0 to 100
Outline: as §1

barnyardgrass = format: in vivo, Echinochloa crus-galli
Outline: as §1

Canada horseweed = format: in vivo, Conyza canadensis; conditions: scale 0 to 100
Description: Seeds of plant species selected from bermudagrass (Cynodon dactylon), Surinam grass (Brachiaria decumbens), large crabgrass (Digitaria sanguinalis), green foxtail (Setaria viridis), goosegrass (Eleusine indica), johnsongrass (Sorghum halepense), kochia (Kochia scoparia), pitted morningglory (Ipomoea lacunosa), purple nutsedge (Cyperus rotundus), common ragweed (Ambrosia elation), mustard (Brassica nigra), guineagrass (Panicum maximum), […] (Paspalum dilatatum), barnyardgrass (Echinochloa crus-galli), southern sandbur (Cenchrus echinatus), common sowthistle (Sonchus oleraceous), prickly […] spinosa), Italian ryegrass (Lolium multiflorum), common purslane (Portulaca oleracea), broadleaf signalgrass (Brachiaria platyphylla), common groundsel (Senecio vulgaris), common chickweed (Stellaria media), Virginia dayflower (Commelina virginica), annual bluegrass (Poa annua), naked crabgrass (Digitaria nuda), […] cochinchinensis), quackgrass (Elytrigia repens), Canada horseweed (Conyza canadensis), field bindweed (Convolvulus arvensis), […] (Bidens bipinnata), common mallow (Malva sylvestris), Russian thistle (Salsola kali), and sugarcane (Saccharum officinarum) were planted and treated preemergence with test chemicals formulated in a non-phytotoxic solvent mixture which included a surfactant. At a different time, sugarcane was treated with postemergence applications of some of the test chemicals formulated in the same manner. Plants were approximately 3- to 4-leaf stage for the postemergence treatments. Treated plants and controls were maintained in a greenhouse for 14 to 21 days, after which time all species were compared to controls and visually evaluated. […] A dash (-) response means no test result.

quackgrass = format: in vivo, Elytrigia repens; conditions: scale 0 to 100
Outline: as §1

guineagrass = format: in vivo, Panicum maximum; conditions: scale 0 to 100
Outline: as §1

Italian ryegrass = format: in vivo, Lolium multiflorum; conditions: scale 0 to 100
Outline: as §1

common ragweed = format: in vivo, Ambrosia elation; conditions: scale 0 to 100
Outline: as §1

bermudagrass = format: in vivo, Cynodon dactylon; conditions: scale 0 to 100
Outline: as §1

mustard = format: in vivo, Brassica nigra; conditions: scale 0 to 100
Outline: as §1

prickly sida = format: in vivo, Sida spinosa; conditions: scale 0 to 100
Outline: as §1

naked crabgrass = format: in vivo, Digitaria nuda; conditions: scale 0 to 100
Outline: as §1

southern sandbur = format: in vivo, Cenchrus echinatus; conditions: scale 0 to 100
Outline: as §1

common mallow = format: in vivo, Malva sylvestris; conditions: scale 0 to 100
Outline: as §1

annual bluegrass = format: in vivo, Poa annua; conditions: scale 0 to 100
Outline: as §1

Cn1nc(OC(F)F)c(CS(=O)(=O)c2cccc[n+]2[O-])c1C(F)(F)F [Compound 80]
Plant response rating, Surinam Grass (Surinam grass; 16 g ai/ha, preemergence): 0 | Surinam Grass plant response rating (Surinam grass; 125 g ai/ha, preemergence): 100 | Plant response rating, Surinam Grass (Surinam grass; Preemergence, 62 g ai/ha): 98 | Plant response rating, Surinam Grass (Surinam grass; Preemergence, 31 g ai/ha): 80 | Plant response rating, Foxtail, Green (green foxtail; 16 g ai/ha, preemergence): 30 | Foxtail, Green plant response rating (green foxtail; 62 g ai/ha, Preemergence): 75 | Foxtail, Green plant response rating (green foxtail; 125 g ai/ha, preemergence): 95 | Plant response rating, Foxtail, Green (green foxtail; Preemergence, 31 g ai/ha): 75 | Plant response rating, Purslane (common purslane; 16 g ai/ha, preemergence): 0 | Purslane plant response rating (common purslane; 62 g ai/ha, Preemergence): 0 | Purslane plant response rating (common purslane; 125 g ai/ha, preemergence): 0 | Plant response rating, Purslane (common purslane; Preemergence, 31 g ai/ha): 0 | Plant response rating, Crabgrass, Large (large crabgrass; 16 g ai/ha, preemergence): 40 | Crabgrass, Large plant response rating (large crabgrass; 62 g ai/ha, Preemergence): 80 | Crabgrass, Large plant response rating (large crabgrass; 125 g ai/ha, preemergence): 90 | Plant response rating, Crabgrass, Large (large crabgrass; Preemergence, 31 g ai/ha): 80 | Plant response rating, Field Bindweed (field bindweed; 16 g ai/ha, preemergence): 0 | Field Bindweed plant response rating (field bindweed; 62 g ai/ha, Preemergence): 0 | Field Bindweed plant response rating (field bindweed; 125 g ai/ha, preemergence): 0 | Plant response rating, Field Bindweed (field bindweed; Preemergence, 31 g ai/ha): 0 | Plant response rating, Barnyardgrass (barnyardgrass; 16 g ai/ha, preemergence, scale 0 to 100 (0 no effect, 100 complete control)): 85 | Barnyardgrass plant response rating (barnyardgrass; 62 g ai/ha, Preemergence, scale 0 to 100): 95 | Barnyardgrass plant response rating (barnyardgrass; 125 g ai/ha, preemergence, scale 0 to 100): 100 | Plant response rating, Barnyardgrass (barnyardgrass; Preemergence, 31 g ai/ha, scale 0 to 100): 90 | Plant response rating, Horseweed (Canada horseweed; 16 g ai/ha, preemergence): 0 | Horseweed plant response rating (Canada horseweed; 62 g ai/ha, Preemergence): 100 | Horseweed plant response rating (Canada horseweed; 125 g ai/ha, preemergence): 100 | Plant response rating, Horseweed (Canada horseweed; Preemergence, 31 g ai/ha): 0 | Plant response rating, Quackgrass (quackgrass; 16 g ai/ha, preemergence): 10 | Quackgrass plant response rating (quackgrass; 62 g ai/ha, Preemergence): 65 | Quackgrass plant response rating (quackgrass; 125 g ai/ha, preemergence): 75 | Plant response rating, Quackgrass (quackgrass; Preemergence, 31 g ai/ha): 65 | Plant response rating, Guineagrass (guineagrass; 16 g ai/ha, preemergence): 75 | Guineagrass plant response rating (guineagrass; 62 g ai/ha, Preemergence): 98 | Guineagrass plant response rating (guineagrass; 125 g ai/ha, preemergence): 100 | Plant response rating, Guineagrass (guineagrass; Preemergence, 31 g ai/ha): 98 | Plant response rating, Ryegrass, Italian (Italian ryegrass; 16 g ai/ha, preemergence): 15 | Ryegrass, Italian plant response rating (Italian ryegrass; 125 g ai/ha, preemergence): 65 | Plant response rating, Ryegrass, Italian (Italian ryegrass; Preemergence, 62 g ai/ha): 65 | Plant response rating, Ryegrass, Italian (Italian ryegrass; Preemergence, 31 g ai/ha): 20 | Plant response rating, Ragweed (common ragweed; 16 g ai/ha, preemergence): 0 | Ragweed plant response rating (common ragweed; 125 g ai/ha, preemergence): 90 | Plant response rating, Ragweed (common ragweed; Preemergence, 31 g ai/ha): 0 | Plant response rating, Bermudagrass (bermudagrass; 16 g ai/ha, preemergence): 50 | Bermudagrass plant response rating (bermudagrass; 62 g ai/ha, Preemergence): 90 | Bermudagrass plant response rating (bermudagrass; 125 g ai/ha, preemergence): 98 | Plant response rating, Bermudagrass (bermudagrass; Preemergence, 31 g ai/ha): 80 | Plant response rating, Black Mustard (mustard; 16 g ai/ha, preemergence): 0 | Black Mustard plant response rating (mustard; 62 g ai/ha, Preemergence): 0 | Black Mustard plant response rating (mustard; 125 g ai/ha, preemergence): 50 | Plant response rating, Black Mustard (mustard; Preemergence, 31 g ai/ha): 0 | Plant response rating, Prickly Sida (prickly sida; 16 g ai/ha, preemergence): 0 | Prickly Sida plant response rating (prickly sida; 62 g ai/ha, Preemergence): 0 | Prickly Sida plant response rating (prickly sida; 125 g ai/ha, preemergence): 20 | Plant response rating, Prickly Sida (prickly sida; Preemergence, 31 g ai/ha): 0 | Plant response rating, Crabgrass, Naked (naked crabgrass; 16 g ai/ha, preemergence): 0 | Crabgrass, Naked plant response rating (naked crabgrass; 62 g ai/ha, Preemergence): 90 | Crabgrass, Naked plant response rating (naked crabgrass; 125 g ai/ha, preemergence): 100 | Plant response rating, Crabgrass, Naked (naked crabgrass; Preemergence, 31 g ai/ha): 75 | Plant response rating, Sandbur (southern sandbur; 16 g ai/ha, preemergence): 65 | Sandbur plant response rating (southern sandbur; 125 g ai/ha, preemergence): 100 | Plant response rating, Sandbur (southern sandbur; Preemergence, 62 g ai/ha): 95 | Plant response rating, Sandbur (southern sandbur; Preemergence, 31 g ai/ha): 80 | Plant response rating, Mallow (common mallow; 16 g ai/ha, preemergence): 0 | Mallow plant response rating (common mallow; 62 g ai/ha, Preemergence): 0 | Mallow plant response rating (common mallow; 125 g ai/ha, preemergence): 65 | Plant response rating, Mallow (common mallow; Preemergence, 31 g ai/ha): 0 | Plant response rating, Bluegrass (annual bluegrass; 16 g ai/ha, preemergence): 25 | Bluegrass plant response rating (annual bluegrass; 62 g ai/ha, Preemergence): 90 | Bluegrass plant response rating (annual bluegrass; 125 g ai/ha, preemergence): 95 | Plant response rating, Bluegrass (annual bluegrass; Preemergence, 31 g ai/ha): 25
